Our source for the T/C values is PubChem BioAssay AID248 (DTP/NCI, 2004).

In this assay the test system is L1210 leukemia ip in BDF1 mice, survival T/C. Put plainly: NCI In Vivo Anticancer Drug Screen. Data for tumor model L1210 Leukemia (intraperitoneal) in B6D2F1 (BDF1) mice. To be noted: higher = longer survival. The method, boiled down: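 Tumor cells were implanted, animals were treated, and survival was followed. The result divides the treated measurement by the vehicle-control measurement.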

Setting [1] is: endpoint: mean survival time, dose: 200.0 mg/kg/injection, schedule: Q01DX001 (ip), vehicle: saline.
[2] abbreviates: endpoint: mean survival time, dose: 400.0 mg/kg/injection, schedule: Q01DX001 (ip), vehicle: saline.
Where [3] appears, read: endpoint: mean survival time, dose: 100.0 mg/kg/injection, schedule: Q04DX003 (ip), vehicle: Klucel (hydroxypropylcellulose) (HPC).
[4] abbreviates: endpoint: mean survival time, dose: 200.0 mg/kg/injection, schedule: Q04DX003 (ip), vehicle: Klucel (hydroxypropylcellulose) (HPC).
[5] abbreviates: endpoint: mean survival time, dose: 400.0 mg/kg/injection, schedule: Q04DX003 (ip), vehicle: Klucel (hydroxypropylcellulose) (HPC).
[6] abbreviates: endpoint: mean survival time, dose: 25.0 mg/kg/injection, schedule: Q01DX009 (ip), vehicle: saline.
Setting [7] is: endpoint: mean survival time, dose: 100.0 mg/kg/injection, schedule: Q01DX009 (ip), vehicle: saline with Tween-80.

Several values for one entry are separate records, joined by “and”; a condition that tells them apart may be missing. Equal values may be shown once. Inconclusive results and toxic doses are left out.

Turning to `O=c1nc(NC(=S)Nc2ccn(C3OC(CO)C(O)C3O)c(=O)n2)ccn1C1OC(CO)C(O)C1O` (stereo not drawn), the T/C (endpoint: mean survival time, dose: 50.0 mg/kg/injection, schedule: Q01DX001 (ip), vehicle: other) was 104 % of control; the T/C (endpoint: mean survival time, dose: 50.0 mg/kg/injection, schedule: Q01DX001 (ip), vehicle: water) is 103 % of control and 106 % of control and 114 % of control; the T/C (endpoint: mean survival time, dose: 100.0 mg/kg/injection, schedule: Q01DX001 (ip), vehicle: other) was 110 % of control; the T/C (endpoint: mean survival time, dose: 100.0 mg/kg/injection, schedule: Q01DX001 (ip), vehicle: water) is 106 % of control; the T/C (endpoint: mean survival time, dose: 100.0 mg/kg/injection, schedule: Q01DX005 (ip), vehicle: saline) was 168 % of control and 188 % of control; the T/C (endpoint: mean survival time, dose: 200.0 mg/kg/injection, schedule: Q01DX001 (ip), vehicle: other) is 109 % of control and 116 % of control. Further, the T/C under setting [1] was 158 % of control; the T/C (endpoint: mean survival time, dose: 200.0 mg/kg/injection, schedule: Q01DX005 (ip), vehicle: saline) is 206 % of control and 218 % of control; the T/C (endpoint: mean survival time, dose: 400.0 mg/kg/injection, schedule: Q01DX001 (ip), vehicle: other) is 193 % of control; the T/C under setting [2] is 217 % of control; the T/C (endpoint: mean survival time, dose: 400.0 mg/kg/injection, schedule: Q01DX001 (ip), vehicle: water) was 171 % of control and 215 % of control; the T/C (endpoint: mean survival time, dose: 600.0 mg/kg/injection, schedule: Q01DX001 (ip), vehicle: other) is 163 % of control. Also, the T/C is, setting by setting: (endpoint: mean survival time, dose: 800.0 mg/kg/injection, schedule: Q01DX001 (ip), vehicle: saline) 452 % of control; (endpoint: mean survival time, dose: 800.0 mg/kg/injection, schedule: Q01DX001 (ip), vehicle: water) 196 % of control and 177 % of control and 361 % of control; (endpoint: mean survival time, dose: 1600.0 mg/kg/injection, schedule: Q01DX001 (ip), vehicle: water) 368 % of control; (endpoint: median survival time, dose: 12.5 mg/kg/injection, schedule: Q03HX024 (ip), vehicle: saline) 180 % of control; (endpoint: median survival time, dose: 25.0 mg/kg/injection, schedule: Q03HX024 (ip), vehicle: saline) 180 % of control; (endpoint: median survival time, dose: 50.0 mg/kg/injection, schedule: Q03HX024 (ip), vehicle: saline) 295 % of control. In addition, the T/C (endpoint: median survival time, dose: 100.0 mg/kg/injection, schedule: Q01DX009 (ip), vehicle: saline) is 190 % of control; the T/C (endpoint: median survival time, dose: 200.0 mg/kg/injection, schedule: Q01DX001 (oral), vehicle: saline) is 104 % of control; the T/C (endpoint: median survival time, dose: 200.0 mg/kg/injection, schedule: Q01DX009 (ip), vehicle: saline) was 152 % of control; the T/C (endpoint: median survival time, dose: 200.0 mg/kg/injection, schedule: Q04DX003 (ip), vehicle: saline) was 195 % of control; the T/C (endpoint: median survival time, dose: 400.0 mg/kg/injection, schedule: Q01DX001 (ip), vehicle: saline) was 185 % of control; the T/C (endpoint: median survival time, dose: 400.0 mg/kg/injection, schedule: Q01DX001 (oral), vehicle: saline) was 104 % of control. Also, the T/C is, setting by setting: (endpoint: median survival time, dose: 400.0 mg/kg/injection, schedule: Q04DX003 (ip), vehicle: saline) 233 % of control; (endpoint: median survival time, dose: 800.0 mg/kg/injection, schedule: Q01DX001 (ip), vehicle: saline) 233 % of control; (endpoint: median survival time, dose: 800.0 mg/kg/injection, schedule: Q01DX001 (oral), vehicle: saline) 100 % of control; (endpoint: median survival time, dose: 800.0 mg/kg/injection, schedule: Q04DX003 (ip), vehicle: saline) 342 % of control; (endpoint: median survival time, dose: 1600.0 mg/kg/injection, schedule: Q01DX001 (ip), vehicle: saline) 204 % of control.

Turning to `O=C1NCCCC1c1nc2cccc3c2n1CCC3` (stereo not drawn), the T/C under setting [3] is 94 % of control, the T/C under setting [4] is 108 % of control and the T/C under setting [5] was 97 % of control.

In the case of `COc1ccc(C(SCC(N)C(=O)O)(c2ccccc2)c2ccccc2)cc1` (stereo not drawn), the T/C (endpoint: mean survival time, dose: 7.4 mg/kg/injection, schedule: Q01DX009 (ip), vehicle: saline) was 122 % of control; the T/C under setting [6] was 166 % of control; the T/C (endpoint: mean survival time, dose: 50.0 mg/kg/injection, schedule: Q01DX009 (ip), vehicle: saline) is 183 % of control; the T/C (endpoint: mean survival time, dose: 100.0 mg/kg/injection, schedule: Q01DX009 (ip), vehicle: saline) is 100 % of control.

Turning to `CC(C)=CCC/C(C)=C/CN1C(=O)C=CC1=O`, the T/C reads like this: (endpoint: mean survival time, dose: 12.5 mg/kg/injection, schedule: Q01DX009 (ip), vehicle: water) 91 % of control; (endpoint: mean survival time, dose: 25.0 mg/kg/injection, schedule: Q01DX009 (ip), vehicle: water) 86 % of control; (endpoint: mean survival time, dose: 25.0 mg/kg/injection, schedule: Q04DX003 (ip), vehicle: water) 97 % of control; (endpoint: mean survival time, dose: 50.0 mg/kg/injection, schedule: Q04DX003 (ip), vehicle: water) 98 % of control; (endpoint: mean survival time, dose: 100.0 mg/kg/injection, schedule: Q04DX003 (ip), vehicle: water) 104 % of control.

For the molecule `Brc1ccc([Si](c2ccccc2)(c2ccccc2)c2ccc(Br)cc2)cc1`, the T/C is, setting by setting: under setting [7], 101 % of control; (endpoint: mean survival time, dose: 200.0 mg/kg/injection, schedule: Q01DX009 (ip), vehicle: saline with Tween-80) 93 % of control; (endpoint: mean survival time, dose: 400.0 mg/kg/injection, schedule: Q01DX009 (ip), vehicle: saline with Tween-80) 89 % of control.

Turning to `Cc1ccc(C(=O)CC(C(=O)c2ccccc2)c2ccccc2)cc1` (stereo not drawn), the T/C reads like this: (endpoint: mean survival time, dose: 75.0 mg/kg/injection, schedule: Q01DX009 (ip), vehicle: Klucel (hydroxypropylcellulose) (HPC)) 92 % of control; under setting [3], 94 % of control; (endpoint: mean survival time, dose: 150.0 mg/kg/injection, schedule: Q01DX009 (ip), vehicle: Klucel (hydroxypropylcellulose) (HPC)) 95 % of control; under setting [4], 104 % of control; (endpoint: mean survival time, dose: 300.0 mg/kg/injection, schedule: Q01DX009 (ip), vehicle: Klucel (hydroxypropylcellulose) (HPC)) 95 % of control; under setting [5], 98 % of control.

On to `COc1ccc(/C=N/N=c2\[nH][nH]/c(=N\N=C\c3ccc(OC)c4ccccc34)c3ccccc23)c2ccccc12`, for which the T/C (endpoint: mean survival time, dose: 50.0 mg/kg/injection, schedule: Q01DX001 (ip), vehicle: saline) was 100 % of control; the T/C (endpoint: mean survival time, dose: 100.0 mg/kg/injection, schedule: Q01DX001 (ip), vehicle: saline) was 100 % of control; the T/C under setting [1] was 103 % of control; the T/C under setting [2] was 105 % of control.

In the case of `COC1/C=C/OC2(C)Oc3c(C)c(O)c4c(O)c(c(/C=N/N5C(C)CN(Cc6ccc(C)cc6)CC5C)c(O)c4c3C2=O)NC(=O)C(C)=C/C=C/C(C)C(O)C(C)C(O)C(C)C(OC(C)=O)C1C` (stereo not drawn), the T/C under setting [7] was 94 % of control.

As for `CN(C)NCCN1CCN(CCCN2c3ccccc3Sc3ccc(C(F)(F)F)cc32)CC1`, the T/C runs as follows: (endpoint: mean survival time, dose: 6.25 mg/kg/injection, schedule: Q01DX009 (ip), vehicle: saline) 116 % of control; (endpoint: mean survival time, dose: 12.5 mg/kg/injection, schedule: Q01DX009 (ip), vehicle: saline) 89 % of control; (endpoint: mean survival time, dose: 12.5 mg/kg/injection, schedule: Q04DX003 (ip), vehicle: saline) 101 % of control; under setting [6], 107 % of control; (endpoint: mean survival time, dose: 25.0 mg/kg/injection, schedule: Q04DX003 (ip), vehicle: saline) 104 % of control.

For the molecule `O=C(NCc1ccco1)Nc1ccccc1Cl`, the T/C by setting is: (endpoint: mean survival time, dose: 155.0 mg/kg/injection, schedule: Q01DX Z (ip), vehicle: methylcellulose (MC)) 100 % of control; (endpoint: mean survival time, dose: 233.0 mg/kg/injection, schedule: Q01DX Z (ip), vehicle: methylcellulose (MC)) 100 % of control; (endpoint: mean survival time, dose: 350.0 mg/kg/injection, schedule: Q01DX Z (ip), vehicle: methylcellulose (MC)) 94 % of control.

In the case of `Cc1cc2oc(/C=C(\C#N)c3ccc([N+](=O)[O-])cc3)c(C)c2cc1C`, the T/C (endpoint: mean survival time, dose: 100.0 mg/kg/injection, schedule: Q01DX009 (ip), vehicle: Klucel (hydroxypropylcellulose) (HPC)) was 88 % of control; the T/C under setting [3] is 98 % of control; the T/C (endpoint: mean survival time, dose: 200.0 mg/kg/injection, schedule: Q01DX009 (ip), vehicle: Klucel (hydroxypropylcellulose) (HPC)) is 103 % of control; the T/C under setting [4] was 95 % of control; the T/C (endpoint: mean survival time, dose: 400.0 mg/kg/injection, schedule: Q01DX009 (ip), vehicle: Klucel (hydroxypropylcellulose) (HPC)) is 99 % of control; the T/C under setting [5] is 98 % of control.

Regarding `CC(C)c1ccc(NC(=S)NC(=O)c2ccccc2)cc1`, the T/C runs as follows: (endpoint: mean survival time, dose: 100.0 mg/kg/injection, schedule: Q04DX002 (ip), vehicle: gum acacia) 103 % of control; (endpoint: mean survival time, dose: 200.0 mg/kg/injection, schedule: Q04DX002 (ip), vehicle: gum acacia) 100 % of control; (endpoint: mean survival time, dose: 400.0 mg/kg/injection, schedule: Q04DX002 (ip), vehicle: gum acacia) 92 % of control.

Consider `C[N+](C)(C)C1C2(CCCCC2)NC(=O)C12CCCCC2` (stereo not drawn), for which, where the note is “endpoint: mean survival time, dose: 75.0 mg/kg/injection, schedule: Q01DX001 (ip), vehicle: saline”, the T/C is 96 % of control.
